Results: PubChem BioAssay AID2060603 (Molecular Pharmacology Branch, DTP, NCI, 2025)
Values joined by “and” are separate entries in the source; they are usually repeats but may differ in a detail not shown here. Equal entries are not always repeated. One block for each compound: values may come before it.

Test system: 422866-222-R5-J1-PDC spheroid viability
Test: Anticancer human tumor 422866-222-R5-J1-PDC patient-derived pancreatic adenocarcinoma cell line growth inhibition [CLK]
Details: spheroids with HUVEC and MSC; for viability, T/C: stronger effect = lower value
Outline: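 Multi-cell-type spheroids combined patient-derived tumor cells with HUVEC endothelial cells and human mesenchymal stem cells. Paired agents were dosed in half-log steps down from about clinical Cmax, or from 10 microM where Cmax was unknown.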

[1] = curve of first compound, second compound 0.0316 µM
[2] = curve of first compound, second compound 0.1 µM
[3] = curve of first compound, second compound 0.316 µM
[4] = curve of first compound, second compound 1 µM
[5] = curve of first compound, second compound 3.16 µM
[6] = curve of first compound, second compound 10 µM
[7] = second compound 0.0316 µM, first compound 0.0316 µM
[8] = second compound 0.0316 µM, first compound 0.1 µM
[9] = second compound 0.0316 µM, first compound 0.316 µM
[10] = second compound 0.0316 µM, first compound 1 µM
[11] = second compound 0.0316 µM, first compound 3.16 µM
[12] = second compound 0.0316 µM, first compound 10 µM
[13] = second compound 0.1 µM, first compound 0.0316 µM
[14] = second compound 0.1 µM, first compound 0.1 µM
[15] = second compound 0.1 µM, first compound 0.316 µM
[16] = second compound 0.1 µM, first compound 1 µM
[17] = second compound 0.1 µM, first compound 3.16 µM
[18] = second compound 0.1 µM, first compound 10 µM
[19] = second compound 0.316 µM, first compound 0.0316 µM
[20] = second compound 0.316 µM, first compound 0.1 µM
[21] = second compound 0.316 µM, first compound 0.316 µM
[22] = second compound 0.316 µM, first compound 1 µM
[23] = second compound 0.316 µM, first compound 3.16 µM
[24] = second compound 0.316 µM, first compound 10 µM
[25] = second compound 1 µM, first compound 0.0316 µM
[26] = second compound 1 µM, first compound 0.1 µM
[27] = second compound 1 µM, first compound 0.316 µM
[28] = second compound 1 µM, first compound 1 µM
[29] = second compound 1 µM, first compound 3.16 µM
[30] = second compound 1 µM, first compound 10 µM
[31] = second compound 3.16 µM, first compound 0.0316 µM
[32] = second compound 3.16 µM, first compound 0.1 µM
[33] = second compound 3.16 µM, first compound 0.316 µM
[34] = second compound 3.16 µM, first compound 1 µM
[35] = second compound 3.16 µM, first compound 3.16 µM
[36] = second compound 3.16 µM, first compound 10 µM
[37] = second compound 10 µM, first compound 0.0316 µM
[38] = second compound 10 µM, first compound 0.1 µM
[39] = second compound 10 µM, first compound 0.316 µM
[40] = second compound 10 µM, first compound 1 µM
[41] = second compound 10 µM, first compound 3.16 µM
[42] = second compound 10 µM, first compound 10 µM
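Also: spheroids exposed to agents for seven days before readout.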

IC50 [1]: > 10 µM
IC50 [2]: > 10 µM
IC50 [3]: > 10 µM
IC50 [4]: 0.0316 µM
IC50 [5]: > 10 µM
IC50 [6]: > 10 µM
SMILES: CC(=O)O[C@H]1C(=O)[C@@]2(C)[C@H]([C@H](OC(=O)c3ccccc3)[C@]3(O)C[C@H](OC(=O)[C@H](O)[C@@H](NC(=O)c4ccccc4)c4ccccc4)C(C)=C1C3(C)C)[C@]1(OC(C)=O)CO[C@@H]1C[C@@H]2O + CNC(=O)c1ccc(Nc2nc(OC3CCCC3)c3c(-c4ccc5nc(C)oc5c4)c[nH]c3n2)c(OC)c1
viability, T/C [7]: 68.8%
viability, T/C [8]: 61.1%
viability, T/C [9]: 65.3%
viability, T/C [10]: 83.3%
viability, T/C [11]: 102%
viability, T/C [12]: 100%
viability, T/C [13]: 61%
viability, T/C [14]: 67.9%
viability, T/C [15]: 63%
viability, T/C [16]: 74.8%
viability, T/C [17]: 78.5%
viability, T/C [18]: 98.1%
viability, T/C [19]: 59.4%
viability, T/C [20]: 68%
viability, T/C [21]: 62.2%
viability, T/C [22]: 61.4%
viability, T/C [23]: 65.5%
viability, T/C [24]: 78.7%
viability, T/C [25]: 56.5%
viability, T/C [26]: 48.4%
viability, T/C [27]: 52.8%
viability, T/C [28]: 48.5%
viability, T/C [29]: 66.5%
viability, T/C [30]: 73%
viability, T/C [31]: 56.5%
viability, T/C [32]: 60.8%
viability, T/C [33]: 52.3%
viability, T/C [34]: 57.9%
viability, T/C [35]: 70.5%
viability, T/C [36]: 79%
viability, T/C [37]: 48.9%
viability, T/C [38]: 60.1%
viability, T/C [39]: 61.4%
viability, T/C [40]: 53.9%
viability, T/C [41]: 65.4%
viability, T/C [42]: 70.5%

IC50 [1]: > 10 µM
IC50 [2]: > 10 µM
IC50 [3]: > 10 µM
IC50 [4]: > 10 µM
IC50 [5]: > 10 µM
IC50 [6]: > 10 µM
SMILES: O=C(c1cc(Cc2n[nH]c(=O)c3ccccc23)ccc1F)N1CCN(C(=O)C2CC2)CC1 + CNC(=O)c1ccc(Nc2nc(OC3CCCC3)c3c(-c4ccc5nc(C)oc5c4)c[nH]c3n2)c(OC)c1
viability, T/C [7]: 103%
viability, T/C [8]: 104%
viability, T/C [9]: 112%
viability, T/C [10]: 110%
viability, T/C [11]: 90.6%
viability, T/C [12]: 90.2%
viability, T/C [13]: 111%
viability, T/C [14]: 110%
viability, T/C [15]: 108%
viability, T/C [16]: 110%
viability, T/C [17]: 91.9%
viability, T/C [18]: 72%
viability, T/C [19]: 85.2%
viability, T/C [20]: 84.7%
viability, T/C [21]: 77.2%
viability, T/C [22]: 71.2%
viability, T/C [23]: 76.1%
viability, T/C [24]: 60.6%
viability, T/C [25]: 71.3%
viability, T/C [26]: 63.9%
viability, T/C [27]: 64%
viability, T/C [28]: 52.1%
viability, T/C [29]: 71.3%
viability, T/C [30]: 65.7%
viability, T/C [31]: 68%
viability, T/C [32]: 85.8%
viability, T/C [33]: 68.1%
viability, T/C [34]: 66.9%
viability, T/C [35]: 57.8%
viability, T/C [36]: 59.2%
viability, T/C [37]: 66.1%
viability, T/C [38]: 75.8%
viability, T/C [39]: 58.3%
viability, T/C [40]: 62.1%
viability, T/C [41]: 62.4%
viability, T/C [42]: 51.8%

IC50 (curve of compound): > 1 µM
SMILES: CCN1CCN(Cc2ccc(Nc3ncc(F)c(-c4cc(F)c5nc(C)n(C(C)C)c5c4)n3)nc2)CC1
viability, T/C (compound 0.00316 µM): 99.5% and 74%
viability, T/C (compound 0.01 µM): 84% and 78.8%
viability, T/C (compound 0.0316 µM): 87% and 73.9%
viability, T/C (compound 0.1 µM): 82.6% and 59.1%
viability, T/C (compound 0.316 µM): 80.8% and 66.4%
viability, T/C (compound 1 µM): 98.7% and 90.2%

IC50 (curve of compound): > 10 µM
SMILES: CC(CO)NC(=O)c1cc(-c2ccc(Cl)cc2)nn(-c2cnn(C)c2)c1=O (stereo not drawn)
viability, T/C (compound 0.0316 µM): 93.7% and 89.7%
viability, T/C (compound 0.1 µM): 96.4% and 110%
viability, T/C (compound 0.316 µM): 90.4% and 96.5%
viability, T/C (compound 1 µM): 106% and 108%
viability, T/C (compound 3.16 µM): 96.3% and 107%
viability, T/C (compound 10 µM): 78.1% and 83%
